COc1cccc(Nc2ccccc2)c1
Conditions | solubility (mole fraction)
in 1,2-dichloroethane, 287.65 K | 0.149
in 1,2-dichloroethane, 292.3 K | 0.182
in 1,2-dichloroethane, 297.35 K | 0.216
in 1,2-dichloroethane, 302.55 K | 0.258
in 1,2-dichloroethane, 308.65 K | 0.312
in 1,2-dichloroethane, 313.15 K | 0.355
in 1,2-dichloroethane, 318.85 K | 0.401
in 1,2-dichloroethane, 324.25 K | 0.443
in 1,2-dichloroethane, 329.55 K | 0.502
in 1,2-dichloroethane, 333.75 K | 0.545
in acetone, 287.25 K | 0.237
in acetone, 292.85 K | 0.264
in acetone, 298.95 K | 0.3
in acetone, 303.05 K | 0.327
in acetone, 308.15 K | 0.361
in acetone, 313.05 K | 0.407
in acetone, 317.55 K | 0.456
in acetone, 321.75 K | 0.513
in chloroform, 290.25 K | 0.181
in chloroform, 295.25 K | 0.218
in chloroform, 300.55 K | 0.258
in chloroform, 306.15 K | 0.308
in chloroform, 311.5 K | 0.35
in chloroform, 315.5 K | 0.386
in chloroform, 319.8 K | 0.424
in chloroform, 323.13 K | 0.456
in ethyl acetate, 287.15 K | 0.195
in ethyl acetate, 291.05 K | 0.225
in ethyl acetate, 295.55 K | 0.254
in ethyl acetate, 300.18 K | 0.283
in ethyl acetate, 306.35 K | 0.329
in ethyl acetate, 311.25 K | 0.366
in ethyl acetate, 316.25 K | 0.407
in ethyl acetate, 321.35 K | 0.442
in ethyl acetate, 326.25 K | 0.5
in ethyl acetate, 330.15 K | 0.543
in methanol, 287.25 K | 0.0134
in methanol, 291.95 K | 0.0174
in methanol, 296.65 K | 0.0214
in methanol, 301.15 K | 0.0268
in methanol, 305.35 K | 0.0339
in methanol, 311.85 K | 0.0478
in methanol, 316.25 K | 0.0579
in methanol, 321.25 K | 0.0724
in methanol, 327.15 K | 0.0972

CSc1cccc(Nc2ccccc2)c1
Conditions | solubility (mole fraction)
in 1,2-dichloroethane, 287.65 K | 0.189
in 1,2-dichloroethane, 292.3 K | 0.231
in 1,2-dichloroethane, 296.85 K | 0.278
in 1,2-dichloroethane, 300.95 K | 0.311
in 1,2-dichloroethane, 305.35 K | 0.36
in 1,2-dichloroethane, 310.45 K | 0.415
in 1,2-dichloroethane, 315.15 K | 0.466
in 1,2-dichloroethane, 319.75 K | 0.515
in 1,2-dichloroethane, 324.25 K | 0.562
in 1,2-dichloroethane, 329.55 K | 0.615
in 1,2-dichloroethane, 333.75 K | 0.654
in acetone, 287.45 K | 0.254
in acetone, 292.55 K | 0.306
in acetone, 296.15 K | 0.343
in acetone, 300.35 K | 0.381
in acetone, 305.45 K | 0.438
in acetone, 310.65 K | 0.5
in acetone, 315.15 K | 0.551
in acetone, 321.75 K | 0.643
in chloroform, 288.85 K | 0.226
in chloroform, 293.35 K | 0.263
in chloroform, 297.05 K | 0.296
in chloroform, 302 K | 0.338
in chloroform, 307.55 K | 0.391
in chloroform, 313.25 K | 0.449
in chloroform, 318.75 K | 0.511
in chloroform, 323.13 K | 0.557
in ethyl acetate, 287.85 K | 0.231
in ethyl acetate, 292.95 K | 0.281
in ethyl acetate, 297.25 K | 0.311
in ethyl acetate, 302.15 K | 0.357
in ethyl acetate, 306.65 K | 0.403
in ethyl acetate, 311.25 K | 0.452
in ethyl acetate, 316.45 K | 0.516
in ethyl acetate, 321.35 K | 0.573
in ethyl acetate, 325.85 K | 0.643
in ethyl acetate, 330.15 K | 0.711
in methanol, 287.65 K | 0.0115
in methanol, 291.55 K | 0.016
in methanol, 297.15 K | 0.0235
in methanol, 302.4 K | 0.0342
in methanol, 307.25 K | 0.046
in methanol, 311.95 K | 0.0608
in methanol, 316.35 K | 0.0761
in methanol, 321.25 K | 0.0951
in methanol, 327.15 K | 0.121

— BigSolDB 2.1
